Assay [1] addresses T1, ALK (Homo sapiens, UniProt Q9UM73).
T1 construct: host or cells: baculovirus expression system
Briefly: ALK Kinase Assay (ELISA/TRF, PLC-γ substrate). Type of assay: biochemical. To be noted: ALK kinase inhibition, 1 μM ATP; read-out: ALK Potency. The method in brief: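 First, plates are coated with substrate (phospholipase C-γ, 10 μg/mL, TBS). Next, 30 ng/ml ALK initiates phosphorylation for 15 min at 37° C. Then Eu-N1 PT66 antibody is added for detection, and a nonlinear dose-response fit of percent inhibition yields IC50.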
For orientation: In an ELISA, binding on a coated surface is turned into a signal by an enzyme label.

In assay [2] the target is T2, JAK2 (Homo sapiens, UniProt O60674).
T2 construct: host or cells: baculovirus expression system
Kind of assay: Recombinant Human JAK2 Kinase Assay (TRF). Type of assay: biochemical. The settings on record: JAK2 kinase inhibition, 0.2 μM ATP; read-out: JAK2 Potency. The method in brief: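 TRF read-out: Eu-N1 PY100 anti-phosphotyrosine antibody detects product. Enzyme is baculovirus-expressed JAK2 at 15 ng/ml; substrate is a biotinyl 15-mer peptide bound to Neutravidin-coated wells. Buffer 20 mM HEPES pH 7.2, 0.2 μM ATP, 1 mM MnCl2, 0.1% BSA, 2.5% DMSO final; 20 min, RT.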

T1 sequence (Q9UM73 19-1620): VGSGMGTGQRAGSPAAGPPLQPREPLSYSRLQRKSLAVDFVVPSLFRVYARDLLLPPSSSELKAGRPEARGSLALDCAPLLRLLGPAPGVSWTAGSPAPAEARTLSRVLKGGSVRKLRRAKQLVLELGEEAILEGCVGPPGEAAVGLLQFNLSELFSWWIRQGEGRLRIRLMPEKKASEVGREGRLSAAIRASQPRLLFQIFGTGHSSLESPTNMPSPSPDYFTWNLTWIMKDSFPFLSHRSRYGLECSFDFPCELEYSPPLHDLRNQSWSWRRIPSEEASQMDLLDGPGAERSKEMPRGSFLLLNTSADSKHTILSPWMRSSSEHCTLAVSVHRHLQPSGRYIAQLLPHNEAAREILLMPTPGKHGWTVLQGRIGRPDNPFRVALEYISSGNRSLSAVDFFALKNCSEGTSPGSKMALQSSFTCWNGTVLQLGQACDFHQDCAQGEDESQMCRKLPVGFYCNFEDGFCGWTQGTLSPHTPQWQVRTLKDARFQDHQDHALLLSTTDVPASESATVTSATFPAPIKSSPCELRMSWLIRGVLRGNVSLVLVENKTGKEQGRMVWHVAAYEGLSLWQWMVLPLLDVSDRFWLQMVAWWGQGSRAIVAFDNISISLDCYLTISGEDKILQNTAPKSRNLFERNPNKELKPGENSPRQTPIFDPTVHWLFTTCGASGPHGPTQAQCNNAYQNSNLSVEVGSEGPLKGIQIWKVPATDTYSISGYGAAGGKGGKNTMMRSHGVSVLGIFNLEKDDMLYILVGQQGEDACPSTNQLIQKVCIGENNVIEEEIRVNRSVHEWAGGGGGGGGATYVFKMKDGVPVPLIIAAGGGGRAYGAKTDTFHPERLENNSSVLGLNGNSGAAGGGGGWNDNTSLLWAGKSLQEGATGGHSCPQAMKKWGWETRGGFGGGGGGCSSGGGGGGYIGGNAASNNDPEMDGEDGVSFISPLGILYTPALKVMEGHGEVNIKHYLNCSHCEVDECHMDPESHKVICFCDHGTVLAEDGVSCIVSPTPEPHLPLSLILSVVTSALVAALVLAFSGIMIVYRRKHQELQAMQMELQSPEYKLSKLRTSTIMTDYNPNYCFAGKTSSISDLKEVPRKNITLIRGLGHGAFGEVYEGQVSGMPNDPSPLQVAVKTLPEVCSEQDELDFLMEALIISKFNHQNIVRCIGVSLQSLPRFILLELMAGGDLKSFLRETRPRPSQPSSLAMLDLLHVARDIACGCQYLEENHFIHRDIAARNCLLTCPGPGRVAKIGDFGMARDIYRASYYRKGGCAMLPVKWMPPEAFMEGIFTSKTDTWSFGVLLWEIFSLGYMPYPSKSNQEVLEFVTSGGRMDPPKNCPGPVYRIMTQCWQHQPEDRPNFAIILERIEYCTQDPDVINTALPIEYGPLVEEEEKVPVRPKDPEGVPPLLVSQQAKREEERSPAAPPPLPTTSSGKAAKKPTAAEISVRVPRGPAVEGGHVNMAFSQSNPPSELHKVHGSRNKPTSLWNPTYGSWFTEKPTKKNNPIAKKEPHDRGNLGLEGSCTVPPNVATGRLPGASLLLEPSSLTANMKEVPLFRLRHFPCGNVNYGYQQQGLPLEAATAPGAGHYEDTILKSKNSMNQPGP
T2 sequence (O60674 whole entry): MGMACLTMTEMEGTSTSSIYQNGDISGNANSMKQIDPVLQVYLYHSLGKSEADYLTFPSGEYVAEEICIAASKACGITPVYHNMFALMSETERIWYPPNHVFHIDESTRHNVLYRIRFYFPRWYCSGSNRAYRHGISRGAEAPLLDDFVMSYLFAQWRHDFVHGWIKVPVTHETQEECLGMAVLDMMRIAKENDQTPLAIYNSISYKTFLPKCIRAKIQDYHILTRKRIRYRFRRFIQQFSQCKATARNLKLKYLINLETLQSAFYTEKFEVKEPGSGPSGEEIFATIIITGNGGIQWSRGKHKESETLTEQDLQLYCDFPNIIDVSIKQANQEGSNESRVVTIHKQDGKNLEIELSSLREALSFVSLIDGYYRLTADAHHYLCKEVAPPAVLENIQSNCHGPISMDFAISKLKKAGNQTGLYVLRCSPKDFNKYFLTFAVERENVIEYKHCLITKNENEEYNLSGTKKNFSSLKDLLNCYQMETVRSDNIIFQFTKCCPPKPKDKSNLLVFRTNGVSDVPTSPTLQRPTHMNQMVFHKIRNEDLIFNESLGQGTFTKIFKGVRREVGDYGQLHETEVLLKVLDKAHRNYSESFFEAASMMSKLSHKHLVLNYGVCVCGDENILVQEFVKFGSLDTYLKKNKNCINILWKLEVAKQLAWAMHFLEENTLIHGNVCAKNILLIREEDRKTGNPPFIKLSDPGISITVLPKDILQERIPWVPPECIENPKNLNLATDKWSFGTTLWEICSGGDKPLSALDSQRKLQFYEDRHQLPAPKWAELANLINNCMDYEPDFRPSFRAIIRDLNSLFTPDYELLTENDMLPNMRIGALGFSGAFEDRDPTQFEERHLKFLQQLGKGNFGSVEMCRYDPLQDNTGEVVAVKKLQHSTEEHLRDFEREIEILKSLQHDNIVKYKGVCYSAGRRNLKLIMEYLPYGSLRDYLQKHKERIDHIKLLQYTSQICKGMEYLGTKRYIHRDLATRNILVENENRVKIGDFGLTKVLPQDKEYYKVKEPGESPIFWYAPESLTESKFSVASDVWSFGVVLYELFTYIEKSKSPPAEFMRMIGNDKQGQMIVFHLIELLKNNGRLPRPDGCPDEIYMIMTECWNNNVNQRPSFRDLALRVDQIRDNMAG

For the molecule `COc1ccc(-c2ccc3cnc(Nc4ccc(C5CCN(CC(N)=O)CC5)cc4)nn23)c(OC)n1` [Example 682, 2-(4-{4-[7-(2,6-Dimethoxy-pyridin-3-yl)-pyrrolo[2,1-f][1,2,4]triazin-2-ylamino]-phenyl}-piperidin-1-yl)-acetamide], the IC50 in assay [1] and in assay [2] was less than 0.1 µM throughout.
Turning to `COc1cc(C2CCNCC2)ccc1Nc1ncc2ccc(-c3cccc(S(=O)(=O)NC(C)(C)C)c3)n2n1` [Example 691, N-tert-Butyl-3-[2-(2-methoxy-4-piperidin-4-yl-phenylamino)-pyrrolo[2,1-f][1,2,4]triazin-7-yl]-benzenesulfonamide], the IC50 was less than 0.1 µM in assay [1] and 0.1 to 1 µM in assay [2].
The corresponding values for `COc1cc(C2CCN(C)CC2)ccc1Nc1ncc2ccc(-c3cccc(S(=O)(=O)NC(C)(C)C)c3)n2n1` [Example 692, N-tert-Butyl-3-{2-[2-methoxy-4-(1-methyl-piperidin-4-yl)-phenylamino]-pyrrolo[2,1-f][1,2,4]triazin-7-yl}-benzenesulfonamide] are less than 0.1 µM and less than 0.1 µM.
The corresponding values for `COc1cc(C2CCN(CC(N)=O)CC2)ccc1Nc1ncc2ccc(-c3cccc(S(=O)(=O)NC(C)(C)C)c3)n2n1` [Example 693, 2-(4-{4-[7-(3-tert-Butylsulfamoylphenyl)pyrrolo[2,1-f][1,2,4]triazin-2-ylamino]-3-methoxyphenyl)piperidin-1-yl)-acetamide] are less than 0.1 µM and 0.1 to 1 µM.
As to `COc1cc(C2CCN(CCO)CC2)ccc1Nc1ncc2ccc(-c3cccc(S(=O)(=O)NC(C)(C)C)c3)n2n1` [Example 694, N-tert-Butyl-3-(2-{4-[1-(2-hydroxy-ethyl)-piperidin-4-yl]-2-methoxy-phenylamino}-pyrrolo[2,1-f][1,2,4]triazin-7-yl)-benzenesulfonamide], the results for the IC50 in assay [1] and in assay [2] were less than 0.1 µM and 0.1 to 1 µM, respectively.
As for `COc1cc(C2CCN(C[C@H](O)CO)CC2)ccc1Nc1ncc2ccc(-c3cccc(S(=O)(=O)NC(C)(C)C)c3)n2n1` [Example 695, N-tert-Butyl-3-(2-{4-[1-((S)-2,3-dihydroxy-propyl)-piperidin-4-yl]-2-methoxy-phenylamino}-pyrrolo[2,1-f][1,2,4]triazin-7-yl)-benzenesulfonamide], the figures for the IC50 in assay [1] and in assay [2] were less than 0.1 µM and 0.1 to 1 µM, respectively.
In the case of `COc1cc(C2CCN(C)CC2)ccc1Nc1ncc2ccc(-c3cccc(S(=O)(=O)NC4CC4)c3)n2n1` [Example 696], the IC50 in assay [1] was less than 0.1 µM; in assay [2], 0.1 to 1 µM.
With `COc1cc(C2CCN(CC(N)=O)CC2)ccc1Nc1ncc2ccc(-c3cccc(S(=O)(=O)NC4CC4)c3)n2n1` [Example 697, 2-(4-{4-[7-(3-Cyclopropylsulfamoyl-phenyl)-pyrrolo[2,1-f][1,2,4]triazin-2-ylamino]-3-methoxy-phenyl}-piperidin-1-yl)-acetamide], the IC50 in assay [1] was less than 0.1 µM; in assay [2], 0.1 to 1 µM.
The corresponding values for `COc1cc(C2CCN(CCO)CC2)ccc1Nc1ncc2ccc(-c3cccc(S(=O)(=O)NC4CC4)c3)n2n1` [Example 698] are less than 0.1 µM and 0.1 to 1 µM.
For `COc1cc2c(cc1Nc1ncc3ccc(-c4cccc(S(=O)(=O)NC(C)(C)C)c4)n3n1)CCN(CCO)CC2` [Example 699], the IC50 was less than 0.1 µM in assay [1] and 0.1 to 1 µM in assay [2].
In the case of `COc1cc2c(cc1Nc1ncc3ccc(-c4cccc(S(=O)(=O)NC(C)(C)C)c4)n3n1)CCN(C[C@@H](C)O)CC2` [Example 700], the IC50 was less than 0.1 µM in assay [1] and 0.1 to 1 µM in assay [2].
The corresponding values for `COc1cc2c(cc1Nc1ncc3ccc(-c4cccc(S(=O)(=O)NC(C)(C)C)c4)n3n1)CCN(C[C@H](C)O)CC2` [Example 701] are less than 0.1 µM and 0.1 to 1 µM.
The corresponding values for `COc1cc(C2CCN(CCO)CC2)ccc1Nc1ncc2ccc(-c3cccc4c3OCC4)n2n1` [Example 702, 2-(4-{4-[7-(2,3-Dihydro-benzofuran-7-yl)-pyrrolo[2,1-f][1,2,4]triazin-2-ylamino]-3-methoxy-phenyl}-piperidin-1-yl)-ethanol] are less than 0.1 µM and 0.1 to 1 µM.
The matching figures for `COc1cc(C2CCN(CC(N)=O)CC2)ccc1Nc1ncc2ccc(-c3cccc4c3OCC4)n2n1` [Example 703, 2-(4-{4-[7-(2,3-Dihydro-benzofuran-7-yl)-pyrrolo[2,1-f][1,2,4]triazin-2-ylamino]-3-methoxy-phenyl}-piperidin-1-yl)-acetamide]: less than 0.1 µM and 0.1 to 1 µM.
With `COc1cc2c(cc1Nc1ncc3ccc(-c4cccc5c4OCC5)n3n1)CCN(CCO)CC2` [Example 704, 2-{7-[7-(2,3-Dihydro-benzofuran-7-yl)-pyrrolo[2,1-f][1,2,4]triazin-2-ylamino]-8-methoxy-1,2,4,5-tetrahydro-3-benzazepin-3-yl}-ethanol], the IC50 in assay [1] and in assay [2] was less than 0.1 µM in each case.
With `COc1cc(C2CCN(C)CC2)ccc1Nc1ncc2ccc(-c3cccc4c3OCC4)n2n1` [Example 705, [7-(2,3-Dihydro-benzofuran-7-yl)-pyrrolo[2,1-f][1,2,4]triazin-2-yl]-[2-methoxy-4-(1-methyl-piperidin-4-yl)-phenyl]-amine], the IC50 in assay [1] was less than 0.1 µM; in assay [2], 0.1 to 1 µM.
As for `NC(=O)CN1CCC(c2ccc(Nc3ncc4ccc(-c5cccc6c5OCC6)n4n3)cc2)CC1` [Example 706, 2-(4-{4-[7-(2,3-Dihydro-benzofuran-7-yl)-pyrrolo[2,1-f][1,2,4]triazin-2-ylamino]-phenyl}-piperidin-1-yl)-acetamide], the IC50 in assay [1] and in assay [2] was less than 0.1 µM throughout.
Regarding `COc1cc2c(cc1Nc1ncc3ccc(-c4cccc5c4OCC5)n3n1)CCCC(N1CCN(CCO)CC1)C2` (stereo not drawn) [Example 707, 2-(4-{2-[7-(2,3-Dihydro-benzofuran-7-yl)-pyrrolo[2,1-f][1,2,4]triazin-2-ylamino]-3-methoxy-6,7,8,9-tetrahydro-5H-benzocyclohepten-6-yl}-piperazin-1-yl)-ethanol], the values for the IC50 in assay [1] and in assay [2] were less than 0.1 µM and 0.1 to 1 µM, respectively.
Take `COc1cc2c(cc1Nc1ncc3ccc(-c4cccc5c4OCC5)n3n1)CCN(CC(N)=O)CC2` [Example 708, 2-{7-[7-(2,3-Dihydro-benzofuran-7-yl)-pyrrolo[2,1-f][1,2,4]triazin-2-ylamino]-8-methoxy-1,2,4,5-tetrahydro-3-benzazepin-3-yl}-acetamide]: the figures for the IC50 in assay [1] and in assay [2] were less than 0.1 µM and 0.1 to 1 µM, respectively.
For `COc1cc2c(cc1Nc1ncc3ccc(-c4cccc5c4OCC5)n3n1)CCNCC2` [Example 709, [7-(2,3-Dihydro-benzofuran-7-yl)-pyrrolo[2,1-f][1,2,4]triazin-2-yl]-(8-methoxy-2,3,4,5-tetrahydro-1H-3-benzazepin-7-yl)-amine], the IC50 in assay [1] and in assay [2] was less than 0.1 µM throughout.
As for `c1cc2c(c(-c3ccc4cnc(Nc5cnc6c(N7CCNCC7)cccc6c5)nn34)c1)OCC2` [Example 710, [7-(2,3-Dihydro-benzofuran-7-yl)-pyrrolo[2,1-f][1,2,4]triazin-2-yl]-(8-piperazin-1-yl-quinolin-3-yl)-amine], the IC50 in assay [1] was more than 10 µM; in assay [2], 1 to 10 µM.
